The target of assay [1] is T1, His tagged full-length PTP1B protein (Homo sapiens, UniProt P18031).
T1 construct: made in house
T1 sequence (P18031 with tags, fused parts or gaps): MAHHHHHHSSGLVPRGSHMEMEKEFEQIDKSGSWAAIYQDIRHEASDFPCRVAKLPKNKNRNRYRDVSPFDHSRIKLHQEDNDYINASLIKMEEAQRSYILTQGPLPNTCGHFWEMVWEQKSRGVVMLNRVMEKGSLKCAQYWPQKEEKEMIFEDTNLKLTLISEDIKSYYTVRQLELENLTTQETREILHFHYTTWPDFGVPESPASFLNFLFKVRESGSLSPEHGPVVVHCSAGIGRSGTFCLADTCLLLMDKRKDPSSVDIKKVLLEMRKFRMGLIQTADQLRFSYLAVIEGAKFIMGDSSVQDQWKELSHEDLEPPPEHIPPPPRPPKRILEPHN
The assay is described as follows: Mobility shift assay (MSA) for potency of PTP1B inhibitors. It is filed as biochemical. The method, then:
The enzymatic assay used to determine activity is a mobility shift assay using a LabChip EZ Reader by Caliper Life Sciences. The enzymatic reaction was carried out in assay buffer (50 mM HEPES pH 7.5, 1 mM EGTA, 10 mM EDTA, 0.01% Tween® 20, and 2 mM DTT). […] The enzyme (at 0.5 nM) was incubated with compound for 10 minutes at room temperature. […] The % inhibition was then used to calculate the IC50 values.

Assay [2] concerns B16F10 mouse melanoma cells. The assay is described as follows: B16F10 IFNγ-induced cellular growth inhibition assay. In kind it is cell-based. Conditions: Mus musculus, B16-F10, 33 μM compound. Put shortly: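 Live-cell imaging of confluence every 6 h over 5 days at 37 °C tracked growth of mouse B16F10 melanoma cells seeded overnight at 500/well. Semi-log compound series (final 100–0.001 μM, 0.1% DMSO) ran in both arms, ±IFNγ at 0.5 ng/mL final; inhibition taken relative to DMSO plus IFNγ when IFNγ-free DMSO wells passed 95% confluence.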

Assay [3] addresses T2, His tagged PTPN2 (TC45) protein (Homo sapiens, UniProt P17706).
T2 construct: made in house
T2 sequence (P17706 with tags, fused parts or gaps isoform P17706-2): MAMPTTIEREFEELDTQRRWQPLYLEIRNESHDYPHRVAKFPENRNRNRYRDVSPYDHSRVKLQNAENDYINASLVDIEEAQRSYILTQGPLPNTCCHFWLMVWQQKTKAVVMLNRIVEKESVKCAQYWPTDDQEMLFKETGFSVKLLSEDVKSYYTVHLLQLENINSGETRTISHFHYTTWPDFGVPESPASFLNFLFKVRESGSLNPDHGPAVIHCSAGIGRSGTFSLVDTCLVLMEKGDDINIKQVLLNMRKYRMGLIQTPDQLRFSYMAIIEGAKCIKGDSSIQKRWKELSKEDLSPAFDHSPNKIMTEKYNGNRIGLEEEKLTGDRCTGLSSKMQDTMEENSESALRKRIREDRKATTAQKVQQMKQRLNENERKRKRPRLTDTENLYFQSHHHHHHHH
The assay is described as follows: Mobility shift assay (MSA) for potency of PTPN2 inhibitors. It is filed as biochemical. Conditions: read-out: PTPN2 MSA IC50. Put shortly: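 IC50 values were derived from % inhibition of substrate conversion, measured by microfluidic mobility shift (ex 488/em 530) after quenching. The fluorescent phosphotyrosine insulin-receptor peptide ([…]) reacted for 10 min at room temperature with 0.5 nM His-tagged TC45 PTPN2 that had been preincubated 10 min with compound (12 points, 1:3). Buffer was HEPES pH 7.5 with EGTA, EDTA, Tween 20 and DTT.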

[4] abbreviates: +0.5 ng/mL IFNγ, relative to DMSO control, read-out: % B16F10 growth inhibition (+0.5 ng/mL IFNγ) @ 33 μM.
Setting [5] is: no IFNγ, read-out: % B16F10 growth inhibition (no IFNγ) @ 33 μM.

Here are results for 17 molecules from patent US20210009542A1 (Calico Life Sciences LLC, priority 2018, published 2021).

Where two headings read alike, the source gives them in different places.

For orientation: IC50 means the point on the concentration scale where inhibition reaches its midpoint. For `CC(C)N1CCC(F)(COc2ccc3cc(O)c(N4CC(=O)NS4(=O)=O)c(F)c3c2)C1` (centres unmarked) [Compound 109, 5-(1-fluoro-7-{[3-fluoro-1-(propan-2-yl)pyrrolidin-3-yl]methoxy}-3-hydroxynaphthalen-2-yl)-1λ^6,2,5-thiadiazolidine-1,1,3-trione], the 50% inhibitory concentration (IC50) in assay [1] fell in the range of 10 to 100 nM; in assay [3] it was 1 to 10 nM. Further, the inhibition at 33 µM in assay [2] (setting [4]) and in assay [2] (setting [5]) was less than 25% throughout.

Turning to `O=C1CN(c2c(O)cc3ccc(OCC4(F)CCNC4)cc3c2F)S(=O)(=O)N1` (centres unmarked) [Compound 110, 5-{1-fluoro-7-[(3-fluoropyrrolidin-3-yl)methoxy]-3-hydroxynaphthalen-2-yl}-1λ^6,2,5-thiadiazolidine-1,1,3-trione], the 50% inhibitory concentration (IC50) fell in the range of 10 to 100 nM in assay [1] and 1 to 10 nM in assay [3]. Also, the inhibition at 33 µM in assay [2] (setting [4]) was 60 to 90%; in assay [2] (setting [5]) it was less than 25%.

`NC12CC(CCOc3ccc4cc(O)c(N5CC(=O)NS5(=O)=O)c(F)c4c3)(C1)C2` [Compound 121, 5-{7-[2-(3-aminobicyclo[1.1.1]pentan-1-yl)ethoxy]-1-fluoro-3-hydroxynaphthalen-2-yl}-1λ^6,2,5-thiadiazolidine-1,1,3-trione]: the IC50 in assay [1] and in assay [3] was 1 to 10 nM in each case. In addition, the inhibition at 33 µM in assay [2] (setting [4]) is 60 to 90%; in assay [2] (setting [5]), less than 25%.

For `CN(C)CCNc1ccc2cc(O)c(N3CC(=O)NS3(=O)=O)c(F)c2c1` [Compound 122, 5-(7-{[2-(dimethylamino)ethyl]amino}-1-fluoro-3-hydroxynaphthalen-2-yl)-1λ^6,2,5-thiadiazolidine-1,1,3-trione], the IC50 in assay [1] and in assay [3] was 10 to 100 nM throughout. The inhibition at 33 µM was 60 to 90% in assay [2] (setting [4]) and less than 25% in assay [2] (setting [5]).

Turning to `CS(=O)(=O)N1CCC(Nc2ccc3cc(O)c(N4CC(=O)NS4(=O)=O)c(F)c3c2)C1` (centres unmarked) [Compound 126, 5-(1-fluoro-3-hydroxy-7-{[1-(methanesulfonyl)pyrrolidin-3-yl]amino}naphthalen-2-yl)-1λ^6,2,5-thiadiazolidine-1,1,3-trione], the IC50 in assay [1] and in assay [3] was 1 to 10 nM throughout. In addition, the inhibition at 33 µM was 60 to 90% in assay [2] (setting [4]) and less than 25% in assay [2] (setting [5]).

In the case of `CN(C)CCOc1ccc2cc(O)c(N3CC(=O)NS3(=O)=O)c(F)c2c1` [Compound 131, 5-{7-[2-(dimethylamino)ethoxy]-1-fluoro-3-hydroxynaphthalen-2-yl}-1λ^6,2,5-thiadiazolidine-1,1,3-trione], the figures for the half-inhibitory concentration (IC50) in assay [1] and in assay [3] were 10 to 100 nM and 1 to 10 nM, respectively. The figures for the inhibition at 33 µM in assay [2] (setting [4]) and in assay [2] (setting [5]) were greater than 90% and less than 25%, respectively.

Consider `O=C1CN(c2c(O)cc3ccc(OCC(O)C4CC4)cc3c2F)S(=O)(=O)N1` (centres unmarked) [Compound 150, 5-[7-(2-cyclopropyl-2-hydroxyethoxy)-1-fluoro-3-hydroxynaphthalen-2-yl]-1λ^6,2,5-thiadiazolidine-1,1,3-trione], for which the IC50 in assay [1] and in assay [3] was 1 to 10 nM throughout. The inhibition at 33 µM in assay [2] (setting [4]) was greater than 90%; in assay [2] (setting [5]) it was less than 25%.

With `CC(O)CCOc1ccc2cc(O)c(N3CC(=O)NS3(=O)=O)c(F)c2c1` (centres unmarked) [Compound 156, 5-[1-fluoro-3-hydroxy-7-(3-hydroxybutoxy)naphthalen-2-yl]-1λ^6,2,5-thiadiazolidine-1,1,3-trione], the results for the IC50 in assay [1] and in assay [3] were 1 to 10 nM and less than 1 nM, respectively. Also, the inhibition at 33 µM in assay [2] (setting [4]) is 60 to 90%; in assay [2] (setting [5]), less than 25%.

As for `CC(C)CC(=O)Nc1ccc2cc(O)c(N3CC(=O)NS3(=O)=O)c(F)c2c1` [Compound 157, N-[8-fluoro-6-hydroxy-7-(1,1,4-trioxo-1λ^6,2,5-thiadiazolidin-2-yl)naphthalen-2-yl]-3-methylbutanamide], the IC50 in assay [1] lay within 10 to 100 nM; in assay [3] it was 1 to 10 nM. Moreover, the inhibition at 33 µM was 60 to 90% in assay [2] (setting [4]) and less than 25% in assay [2] (setting [5]).

`O=C1CN(c2c(O)cc3ccc(OCCC4CC4(F)F)cc3c2F)S(=O)(=O)N1` (centres unmarked) [Compound 192, 5-{7-[2-(2,2-difluorocyclopropyl)ethoxy]-1-fluoro-3-hydroxynaphthalen-2-yl}-1λ^6,2,5-thiadiazolidine-1,1,3-trione]: the IC50 in assay [1] and in assay [3] was less than 1 nM each time. Moreover, the inhibition at 33 µM in assay [2] (setting [4]) was 60 to 90%; in assay [2] (setting [5]), less than 25%.

With `O=C1CN(c2c(O)cc3ccc(OCC4CC4(F)F)cc3c2F)S(=O)(=O)N1` (centres unmarked) [Compound 210, 5-{7-[(2,2-difluorocyclopropyl)methoxy]-1-fluoro-3-hydroxynaphthalen-2-yl}-1λ^6,2,5-thiadiazolidine-1,1,3-trione], the half-inhibitory concentration (IC50) is 1 to 10 nM in assay [1] and less than 1 nM in assay [3]. For the same molecule, the inhibition at 33 µM in assay [2] (setting [4]) was greater than 90%; in assay [2] (setting [5]), less than 25%.

Turning to `O=C1CN(c2c(O)cc3ccc(OCCC4CCCO4)cc3c2F)S(=O)(=O)N1` (centres unmarked) [Compound 213, 5-{1-fluoro-3-hydroxy-7-[2-(oxolan-2-yl)ethoxy]naphthalen-2-yl}-1λ^6,2,5-thiadiazolidine-1,1,3-trione], the half-maximal inhibitory concentration (IC50) is 1 to 10 nM in assay [1] and less than 1 nM in assay [3]. Further, the inhibition at 33 µM in assay [2] (setting [4]) is 60 to 90%; in assay [2] (setting [5]), less than 25%.

In the case of `O=C1CN(c2c(O)cc3ccc(C4CCCOC4)cc3c2F)S(=O)(=O)N1` (centres unmarked) [Compound 249, 5-[1-fluoro-3-hydroxy-7-(oxan-3-yl)naphthalen-2-yl]-1λ^6,2,5-thiadiazolidine-1,1,3-trione], the half-inhibitory concentration (IC50) in assay [1] is greater than 100 nM; in assay [3] it was 1 to 10 nM. Besides, the inhibition at 33 µM in assay [2] (setting [4]) is 60 to 90%; in assay [2] (setting [5]) it was less than 25%.

For the molecule `O=C1CN(c2c(O)cc3ccc(OCC4CCCO4)cc3c2F)S(=O)(=O)N1` (centres unmarked) [Compound 254, 5-{1-fluoro-3-hydroxy-7-[(oxolan-2-yl)methoxy]naphthalen-2-yl}-1λ^6,2,5-thiadiazolidine-1,1,3-trione], the IC50 in assay [1] was greater than 100 nM; in assay [3], 1 to 10 nM. For the same molecule, the figures for the inhibition at 33 µM in assay [2] (setting [4]) and in assay [2] (setting [5]) were 60 to 90% and less than 25%, respectively.

With `O=C1CN(c2c(O)cc3ccc(C4CCOC4)cc3c2F)S(=O)(=O)N1` (centres unmarked) [Compound 255, 5-[1-fluoro-3-hydroxy-7-(oxolan-3-yl)naphthalen-2-yl]-1λ^6,2,5-thiadiazolidine-1,1,3-trione], the IC50 in assay [1] is greater than 100 nM; in assay [3], 1 to 10 nM. Besides, the inhibition at 33 µM in assay [2] (setting [4]) was 60 to 90%; in assay [2] (setting [5]), less than 25%.

Regarding `O=C1CN(c2c(O)cc3ccc(CC4CCCN(S(=O)(=O)C5CC5)C4)cc3c2F)S(=O)(=O)N1` (centres unmarked) [Compound 259, 5-(7-{[1-(cyclopropanesulfonyl)piperidin-3-yl]methyl}-1-fluoro-3-hydroxynaphthalen-2-yl)-1λ^6,2,5-thiadiazolidine-1,1,3-trione], the half-inhibitory concentration (IC50) in assay [1] and in assay [3] was 1 to 10 nM throughout. For the same molecule, the inhibition at 33 µM in assay [2] (setting [4]) and in assay [2] (setting [5]) was less than 25% each time.

Consider `O=C1CN(c2c(O)cc3ccc(CC4CCN(S(=O)(=O)C5CC5)C4)cc3c2F)S(=O)(=O)N1` (centres unmarked) [Compound 261, 5-(7-{[1-(cyclopropanesulfonyl)pyrrolidin-3-yl]methyl}-1-fluoro-3-hydroxynaphthalen-2-yl)-1λ^6,2,5-thiadiazolidine-1,1,3-trione], for which the IC50 in assay [1] and in assay [3] was 1 to 10 nM in each case. For the same molecule, the inhibition at 33 µM was 25 to 59% in assay [2] (setting [4]) and less than 25% in assay [2] (setting [5]).
